Data reported in patent US6500853B1, “Inhibitors of phospholipase enzymes” (Genetics Institute, LLC, priority 1998, dated 2002).

Target: T1, cPLA2 (Homo sapiens, UniProt P47712)
T1 sequence (P47712 1-749): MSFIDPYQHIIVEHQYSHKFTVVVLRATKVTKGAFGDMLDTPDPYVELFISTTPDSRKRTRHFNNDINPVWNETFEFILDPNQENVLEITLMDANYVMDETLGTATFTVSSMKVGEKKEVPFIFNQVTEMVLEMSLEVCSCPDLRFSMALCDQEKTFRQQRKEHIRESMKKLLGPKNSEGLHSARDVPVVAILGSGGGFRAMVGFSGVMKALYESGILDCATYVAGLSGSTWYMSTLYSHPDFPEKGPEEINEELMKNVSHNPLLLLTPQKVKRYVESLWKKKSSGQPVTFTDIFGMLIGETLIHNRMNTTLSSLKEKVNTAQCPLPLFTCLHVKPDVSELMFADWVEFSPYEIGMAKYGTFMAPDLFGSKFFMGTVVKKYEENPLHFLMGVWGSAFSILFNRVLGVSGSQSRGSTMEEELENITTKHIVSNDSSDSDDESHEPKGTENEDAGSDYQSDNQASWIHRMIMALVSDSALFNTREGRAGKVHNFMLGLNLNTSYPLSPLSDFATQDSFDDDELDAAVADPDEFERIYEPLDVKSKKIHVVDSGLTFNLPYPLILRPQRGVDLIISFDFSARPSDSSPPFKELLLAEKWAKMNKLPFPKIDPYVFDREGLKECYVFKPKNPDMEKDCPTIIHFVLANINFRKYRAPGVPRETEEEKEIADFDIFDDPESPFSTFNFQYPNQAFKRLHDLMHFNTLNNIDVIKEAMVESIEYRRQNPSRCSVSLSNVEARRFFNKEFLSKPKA
Test: Coumarin Assay (cPLA2 inhibition)
Format: biochemical
Conditions: for inhibition at 2.5 µM: CONCENTRATION 2.5 micromolar; for inhibition at 1.6 µM: CONCENTRATION 1.6 micromolar; for inhibition at 1.1 µM: CONCENTRATION 1.1 micromolar
Procedure: Table I reports data for the compounds described in the examples above in cPLA2 inhibition assays (described below). In the data columns of Tables I and II, assay results are reported as a percent inhibition at the concentration specified.
7-hydroxycoumarinyl 6-heptenoate was used as a monomeric substrate for cPLA2 as reported previously (Huang, Z. et al., 1994, Nalytical Biochemistry 222, 110-115). Inhibitors were mixed with 200 μL assay buffer (80 mM Heped, pH 7.5, 1 mM EDTA) containing 60 μM 7-hydroxycoumarinyl 6-heptenoate. The reaction was initiated by adding 4 μg cPLA2 in 50 μL assay buffer. Hydrolysis of the 7-hydroxycounarimyl 6-heptenoate ester was monitored in a fluorometer by exciting at 360 nm and monitoring emission at 460 nm. Enzyme activity is proportional to the increase in emission at 460 nm per minute. In the presence of a cPLA2 inhibitor, the rate of increase is less. The percent inhibition for corresponding concentrations of compounds herein in this Coumarin assay are provided below in Table I.

[1] = CONCENTRATION 50 micromolar, read-out: PERCENT INHIBITION @

## O=C(Cc1cn(Cc2ccc(C(F)(F)F)cc2C(F)(F)F)c2ccc(OCc3ccccc3)cc12)Nc1cccc(C(=O)O)c1 [Example 106, 3-[(2-{5-(benzyloxy)-1-[2,4-bis(trifluoromethyl)benzyl]-1H-indol-3-yl}acetyl)amino]benzoic acid]
CONCENTRATION 7 micromolar, read-out: PERCENT INHIBITION @
  inhibition at 7 µM: 50%
CONCENTRATION 12 micromolar, read-out: PERCENT INHIBITION @
  inhibition at 12 µM: 50%

## Cc1c(C(=O)O)c2cc(OCc3ccccc3)ccc2n1Cc1ccc(C(F)(F)F)cc1C(F)(F)F [Example 107, 5-(benzyloxy)-1-[2,4-bis(trifluoromethyl)benzyl]-2-methyl-1H-indole-3-carboxylic acid]
CONCENTRATION 37 micromolar, read-out: PERCENT INHIBITION @
  inhibition at 37 µM: 50%
[1]
  inhibition at 50 µM: 43%
CONCENTRATION 71 micromolar, read-out: PERCENT INHIBITION @
  inhibition at 71 µM: 50%
CONCENTRATION 80 micromolar, read-out: PERCENT INHIBITION @
  inhibition at 80 µM: 50%

## Cc1c(C(=O)Nc2cc(C(=O)O)cc(C(=O)O)c2)c2cc(OCc3ccccc3)ccc2n1Cc1ccc(C(F)(F)F)cc1C(F)(F)F [Example 108, 5-[({5-(benzyloxy)-1-[2,4-bis(trifluoromethyl)benzyl]-2-methyl-1H-indol-3-yl}carbonyl)amino]isophthalic acid]
CONCENTRATION 6.25 micromolar, read-out: PERCENT INHIBITION @
  inhibition at 6.25 µM: 67%
CONCENTRATION 20 micromolar, read-out: PERCENT INHIBITION @
  inhibition at 20 µM: 15%
CONCENTRATION 48 micromolar, read-out: PERCENT INHIBITION @
  inhibition at 48 µM: 50%
[1]
  inhibition at 50 µM: 46%

## Cc1c(C(=O)O)c2cc(OCc3ccccc3)ccc2n1Cc1ccc2ccccc2c1 [Example 109, 5-(benzyloxy)-2-methyl-1-(2-naphthylmethyl)-1H-indole-3-carboxylic acid]
CONCENTRATION 50 micromolar
  PERCENT INHIBITION @: 25%
[1]
  inhibition at 50 µM: 28%

## Cc1c(C(=O)Nc2cc(C(=O)O)cc(C(=O)O)c2)c2cc(OCc3ccccc3)ccc2n1Cc1ccc2ccccc2c1 [Example 110, 5-({[5-(benzyloxy)-2-methyl-1-(2-naphthylmethyl)-1H-indol-3-yl]carbonyl}amino)isophthalic acid]
CONCENTRATION 46 micromolar, read-out: PERCENT INHIBITION @
  inhibition at 46 µM: 50%
CONCENTRATION 47 micromolar, read-out: PERCENT INHIBITION @
  inhibition at 47 µM: 50%

## Cc1c(C(=O)O)c2cc(OCc3ccccc3)ccc2n1Cc1ccccc1 [Example 111, 1-benzyl-5-(benzyloxy)-2-methyl-1H-indole-3-carboxylic acid]
CONCENTRATION 50 micromolar
  PERCENT INHIBITION @: 15%
[1]
  inhibition at 50 µM: 16%

## O=C(Nc1cccc(C(=O)O)c1)C(=O)c1c(CSc2ccc3ccccc3c2)n(Cc2ccc(Cl)cc2)c2ccc(OCc3ccccc3)cc12 [Example 112, 3-[(2-{5-(benzyloxy)-1-(4-chlorobenzyl)-2-[(2-naphthylsulfanyl)methyl]-1H-indol-3-yl}-2-oxoacetyl)amino]benzoic acid]
read-out: PERCENT INHIBITION @
  inhibition at 2.5 µM: 53%

## Cn1c(CSc2ccc3ccccc3c2)c(C(=O)C(=O)Nc2cccc(C(=O)O)c2)c2cc(OCc3ccccc3)ccc21 [Example 113, 3-[(2-{5-(benzyloxy)-1-methyl-2-[(2-naphthylsulfanyl)methyl]-1H-indol-3-yl}-2-oxoacetyl)amino]benzoic acid]
CONCENTRATION 7.5 micromolar, read-out: PERCENT INHIBITION @
  inhibition at 7.5 µM: 50%
CONCENTRATION 8 micromolar, read-out: PERCENT INHIBITION @
  inhibition at 8 µM: 50%

## Cc1cc(Cc2cn(C(c3ccccc3)c3ccccc3)c3cc(Cl)ccc23)cc(C)c1OCC(=O)O [Example 117, 2-{4-[(1-benzhydryl-6-chloro-1H-indol-3-yl)methyl]-2,6-dimethylphenoxy}acetic acid]
read-out: PERCENT INHIBITION @
  inhibition at 1.6 µM: 50%

## COc1cc(OCC(=O)O)ccc1Cc1cn(C(c2ccccc2)c2ccccc2)c2cc(Cl)ccc12 [Example 118, 2-{4-[(1-benzhydryl-6-chloro-1H-indol-3-yl)methyl]-3-methoxyphenoxy}acetic acid]
CONCENTRATION 0.6 micromolar, read-out: PERCENT INHIBITION @
  inhibition at 0.6 µM: 50%

## O=C(O)COc1ccc(Cc2cn(C(c3ccccc3)c3ccccc3)c3cc(Cl)ccc23)cc1 [Example 119, 2-{4-[(1-benzhydryl-6-chloro-1H-indol-3-yl)methyl]phenoxy}acetic acid]
read-out: PERCENT INHIBITION @
  inhibition at 2.5 µM: 50%

## O=C(O)COc1ccc(Cc2cn(C(c3ccccc3)c3ccccc3)c3cc(Cl)ccc23)c(Cl)c1 [Example 120, 2-{4-[(1-benzhydryl-6-chloro-1H-indol-3-yl)methyl]-3-chlorophenoxy}acetic acid]
CONCENTRATION 1 micromolar, read-out: PERCENT INHIBITION @
  inhibition at 1 µM: 50%

## COc1cc(Cc2cn(C(c3ccccc3)c3ccccc3)c3cc(Cl)ccc23)ccc1OCC(=O)O [Example 121, 2-{4-[(1-benzhydryl-6-chloro-1H-indol-3-yl)methyl]-2-methoxyphenoxy}acetic acid]
read-out: PERCENT INHIBITION @
  inhibition at 1.6 µM: 20%

## O=C(O)/C=C/COc1ccc(Cc2cn(C(c3ccccc3)c3ccccc3)c3cc(Cl)ccc23)cc1 [Example 122, (E)-4-{4-[(1-benzhydryl-6-chloro-1H-indol-3-yl)methyl]phenoxy}-2-butenoic acid]
CONCENTRATION 1.25 micromolar, read-out: PERCENT INHIBITION @
  inhibition at 1.25 µM: 64%

## O=C(O)CCC(=O)Nc1ccc(Cc2cn(C(c3ccccc3)c3ccccc3)c3cc(Cl)ccc23)cc1 [Example 123, 4-{4-[(1-benzhydryl-6-chloro-1H-indol-3-yl)methyl]anilino}-4-oxobutanooic acid]
CONCENTRATION 1.2 micromolar
  PERCENT INHIBITION @: 50%

## O=C(O)CC(=O)Nc1ccc(Cc2cn(C(c3ccccc3)c3ccccc3)c3cc(Cl)ccc23)cc1 [Example 124, sodium 3-{4-[(1-benzhydryl-6-chloro-1H-indol-3-yl)methyl]anilino}-3-oxopropanoic acid]
CONCENTRATION 1.3 micromolar, read-out: PERCENT INHIBITION @
  inhibition at 1.3 µM: 50%

## O=C(O)C(=O)Nc1ccc(Cc2cn(C(c3ccccc3)c3ccccc3)c3cc(Cl)ccc23)cc1 [Example 125, 2-{4-[(1-benzhydryl-6-chloro-1H-indol-3-yl)methyl]anilino}-2-oxoacetic acid]
CONCENTRATION 0.8 micromolar, read-out: PERCENT INHIBITION @
  inhibition at 0.8 µM: 50%

## O=C(O)C1CC1Cc1cn(C(c2ccccc2)c2ccccc2)c2cc(Cl)ccc12 (stereo not shown) [Example 126, 2-[(1-benzhydryl-6-chloro-1H-indol-3-yl)methyl]cyclopropanecarboxylic acid]
CONCENTRATION 5.5 micromolar, read-out: PERCENT INHIBITION @
  inhibition at 5.5 µM: 50%

## O=C(O)C1CC1Cc1cn(C(c2ccccc2)c2ccccc2)c2cc(Cl)c(F)cc12 (stereo not shown) [Example 127, 2-[(1-benzhydryl-6-chloro-5-fluoro-1H-indol-3-yl)methyl]cyclopropanecarboxylic acid]
read-out: PERCENT INHIBITION @
  inhibition at 1.1 µM: 50%

## O=C(O)C1CC1Cc1cn(C(c2ccccc2)c2ccccc2)c2cc(Cl)c(Cl)cc12 (stereo not shown) [Example 128, 2-[(1-benzhydryl-5,6-dichloro-1H-indol-3-yl)methyl]cyclopropanecarboxylic acid]
CONCENTRATION 0.9 micromolar, read-out: PERCENT INHIBITION @
  inhibition at 0.9 µM: 50%

## O=C(O)C1CC1Cc1cn(C(c2ccc(O)cc2)c2ccc(O)cc2)c2cc(Cl)ccc12 (stereo not shown) [Example 129, 2-({1-[bis(4-hydroxyphenyl)methyl]-6-chloro-1H-indol-3-yl}methyl)cyclopropanecarboxylic acid]
read-out: PERCENT INHIBITION @
  inhibition at 1.1 µM: 50%

## O=C(O)c1ccc(Cc2cn(C(c3ccccc3)c3ccccc3)c3cc(Cl)ccc23)c(O)c1 [Example 130, ′4-[(1-benzhydryl-6-chloro-1H-indol-3-yl)methyl]-3-hydroxybenzoic acid]
CONCENTRATION 2 micromolar
  PERCENT INHIBITION @: 50%

## O=C(O)c1ccc(Cc2cn(C(c3ccccc3)c3ccccc3)c3cc(Cl)ccc23)c(OCCCO)c1 [Example 131, ′4-[(1-benzhydryl-6-chloro-1H-indol-3-yl)methyl]-3-(3-hydroxypropoxy)benzoic acid]
CONCENTRATION 0.6 micromolar
  PERCENT INHIBITION @: 50%
